US8202996B2, “Crystalline forms of N-(tert-butoxycarbonyl)-3-methyl-L-valyl-(4R)-4-((7-chloro-4-methoxy-1-isoquinolinyl)oxy)-N- ((1R,2S)-1-((cyclopropylsulfonyl)carbamoyl)-2-vinylcyclopropyl)-L-prolinamide” (Bristol-Myers Squibb Company, priority 2007, dated 2012)

Columns and labels:
[1] = Interconversion of Forms H-1 and T1F-1/2 as a function of relative humidity; type: physicochemical; details: solid state, FIG. 1
[2] = Crystal form in aqueous solution / suspension in water; type: physicochemical; details: aqueous solutions / suspended in water

Row | SMILES | relative humidity at which Compound (I) exists as a mixture of H-1 and T1F-1/2 [1] | form stability in water [2] | relative humidity at which Compound (I) exists as this crystalline form [1]
1 | C=C[C@@H]1C[C@]1(NC(=O)[C@@H]1C[C@@H](Oc2ncc(OC)c3ccc(Cl)cc23)CN1C(=O)[C@@H](NC(=O)OC(C)(C)C)C(C)(C)C)C(=O)NS(=O)(=O)C1CC1 [Compound (I), N-(tert-butoxycarbonyl)-3-methyl-L-valyl-(4R)-4-((7-chloro-4-methoxy-1-isoquinolinyl)oxy)-N-((1R,2S)-1-((cyclopropylsulfonyl)carbamoyl)-2-vinylcyclopropyl)-L-prolinamide] | 15-45 % relative humidity | exists as H-1 | –
2 | C=C[C@@H]1C[C@]1(NC(=O)[C@@H]1C[C@@H](Oc2ncc(OC)c3ccc(Cl)cc23)CN1C(=O)[C@@H](NC(=O)OC(C)(C)C)C(C)(C)C)C(=O)NS(=O)(=O)C1CC1 [Form H-1, N-(tert-butoxycarbonyl)-3-methyl-L-valyl-(4R)-4-((7-chloro-4-methoxy-1-isoquinolinyl)oxy)-N-((1R,2S)-1-((cyclopropylsulfonyl)carbamoyl)-2-vinylcyclopropyl)-L-prolinamide] | – | – | > 45 % relative humidity
3 | C=C[C@@H]1C[C@]1(NC(=O)[C@@H]1C[C@@H](Oc2ncc(OC)c3ccc(Cl)cc23)CN1C(=O)[C@@H](NC(=O)OC(C)(C)C)C(C)(C)C)C(=O)NS(=O)(=O)C1CC1 [Form T1F-1/2, N-(tert-butoxycarbonyl)-3-methyl-L-valyl-(4R)-4-((7-chloro-4-methoxy-1-isoquinolinyl)oxy)-N-((1R,2S)-1-((cyclopropylsulfonyl)carbamoyl)-2-vinylcyclopropyl)-L-prolinamide] | – | rapidly converts to H-1 | < 15 % relative humidity
